{"source": "patent US10023554B2", "about": "“Halogen-substituted heterocyclic compound salt” (UBE INDUSTRIES, LTD., priority 2014, dated 2018)", "data": [{"test_system": "A2058 human melanoma cells", "assay": "Cell migration test (LPA-induced migration, Chemo-Tx)", "type": "cell-based", "conditions": "LPA final concentration 100 nM, 3 hours at 37° C., read-out: concentration (IC50) of the test compound required for 50% inhibition of the cell migration activity of LPA", "method": "The cell migration test was carried out using Chemo-Tx (registered trademark) (116-8, Neuro Probe). A2058 human melanoma cells (obtained from European Collection of Cell Culture) were cultured in a serum-free EMEM medium for 24 hours, and were re-suspended in a 0.1% BSA-containing DMEM medium to give a cell suspension. The test compounds dissolved in DMSO in various concentrations were each added to the cell suspension, and the suspensions were cultured at 37° C. for 15 minutes (final DMSO concentration 0.5%). LPA dissolved in a 0.1% BSA-containing DMEM medium (final concentration 100 nM) was added to a Chemo-Tx 96 well plate, and a Chemo-Tx filter coated with 0.001% Fibronectin on both sides was placed onto the plate. The cultured cell suspensions (25,000 cells) were added onto the upper surface of the filter and were further cultured at 37° C. for 3 hours. Thereafter, the cells on the upper surface of the filter were removed. After the filter was removed and was dried, the cells which had migrated to the lower surface of the filter were stained with Diff-Quik stain (16920, Sysmex). The absorbance of the filter (570 nm) was measured and the concentration (IC50) of the test compound required for 50% inhibition of the cell migration activity of LPA was determined by non-linear regression analysis using EXSAS (version 7.6.0, Arm Systex).", "units": {"IC50": "nM"}, "values": [{"smiles": "COc1cc(-c2sc(F)cc2NC(=O)O[C@H](C)c2ccccc2Cl)ccc1-c1ccc(C2(C(=O)O)CC2)cc1", "note": "[Example 7, Sodium (R)-1-{4′-[3-({[1-(2-chlorophenyl)ethoxy]carbonyl}amino)-5-fluorothiophen-2-yl]-2′-methoxy-[1,1′-biphenyl]-4-yl}cyclopropanecarboxylate]", "IC50": "≤ 200"}, {"smiles": "Cc1cscc1[C@@H](C)OC(=O)Nc1cc(F)sc1-c1ccc(-c2ccc(C3(C(=O)O)CC3)cc2)cc1", "note": "[Example 13, Sodium (R)-1-{4′-[5-fluoro-3-({[1-(4-methylthiophen-3-yl)ethoxy]carbonyl}amino)thiophen-2-yl]-[1,1′-biphenyl]-4-yl}cyclopropanecarboxylate]", "IC50": "≤ 200"}, {"smiles": "C[C@@H](OC(=O)Nc1cc(Cl)sc1-c1ccc(-c2ccc(C3(C(=O)O)CC3)cc2)cc1)c1ccsc1", "note": "[Example 10, Sodium (R)-1-{4′-[5-chloro-3-({[1-(thiophen-3-yl)ethoxy]carbonyl}amino)thiophen-2-yl]-[1,1′-biphenyl]-4-yl}cyclopropanecarboxylate]", "IC50": "≤ 200"}, {"smiles": "COc1cc(-c2sc(Cl)cc2NC(=O)O[C@H](C)c2ccccc2)ccc1-c1ccc(C2(C(=O)O)CC2)cc1", "note": "[Example 1, Sodium (R)-1-[4′-(5-chloro-3-{[(1-phenylethoxy)carbonyl]amino}thiophen-2-yl)-2′-methoxy-[1,1′-biphenyl]-4-yl]cyclopropanecarboxylate]", "IC50": "≤ 200"}, {"smiles": "COc1cc(-c2sc(Cl)cc2NC(=O)O[C@H](C)c2cc(F)ccc2F)ccc1-c1ccc(C2(C(=O)O)CC2)cc1", "note": "[Example 4, Sodium (R)-1-{4′-[5-chloro-3-({[1-(2,5-difluorophenyl)ethoxy]carbonyl}amino)thiophen-2-yl]-2′-methoxy-[1,1′-biphenyl]-4-yl}cyclopropanecarboxylate]", "IC50": "≤ 200"}]}]}
